Experiments:
Format in all cases: cell-based, human
SK-MEL-2 cells [1] = experiment: Western blot of protein levels; design: reduction of PKC-ι level / reduction of pPKC-ι level / reduction of PKC-ζ level / reduction of pPKC-ζ level: concentration or dose not given beside the values; conditions: for reduction of PKC-ζ level / reduction of PKC-ι level / reduction of pPKC-ζ level / reduction of pPKC-ι level: vs respective control
Protocol: Approximately 2×10^5 cells from PCS-200-013 and SK-MEL-2 cell lines were plated in T25 flasks until they become 70% confluent. Confluent cells were semi-synchronized by contact inhibition and serum starvation for 48 hrs. Subsequently, cells were incubated with serum and atypical inhibitors. The cells were removed at specific times and were placed in ice to terminate the incubation. Cells were washed at least two times with ice cold DPBS. Cells were then scrapped, re-suspended and sonicated in 500 μL of homogenization buffer (50 mM HEPES—pH 7.5), 150 mM NaCl, 0.1% Triton X, 1 mM EDTA (ethylenediaminetetraacetic acid), 2 mM EGTA [glycol-bis (2-aminoethylether)-N, N, N′,N′-tetraacetic acid], 0.1 mM orthovanadate, 1 mM NaF, 2 mM PMSF (phenylmethylsulphonylfluoride), 1 mM DTT (dithiothreitol) and 0.15 U/mL aprotinin. Cell suspensions was then sonicated and centrifuged at 100,000 g for 30 minutes. The protein concentrations was determined using Bradford method. Subsequently, approximately 800 μg of proteins were immunoprecipitated with the antibody against desired protein. In some cases cell lysates were suspended with anti-HFS-1 antibody, rocking overnight at 4° C. Agarose beds were added after 24 hrs. Then the complex of cell lysate-anti HSF-1 antibody-agarose beads was rocked at 4° C. for 2 hrs. After washing the beads, approximately […] the sample loading buffer was added to dissolve all the protein on the beads. Proteins were then separated on sodium dodecyl sulfate polyacrylamide gel electrophoresis (SDS-PAGE) and transblotted followed by immunoblotting with anti-PKC-ζ or anti-PKC-ι or anti-HSF-1 antibody or phosphospecific antibodies. Immunoreactive bands were visualized with enhanced chemiluminescence. […]
Western blots (WB) were performed to investigate the effect of ACPD and DNDA on the expression of aPKCs on malignant melanoma. […] DNDA decreased the levels of PKC-ι by 52%, pPKC-ι by 33% in SK-MEL-2 cells and by 27% of PKC-ι and pPKC-ι by 20% in MeWo cells.
DNDA reduced the levels of PKC-ζ by 33%, pPKC-ζ by only 17% in SK-MEL-2 cells and by 60% of PKC-ζ and pPKC-ζ by 29% in MeWo cells. All values (percent) were calculated compared to their respective control in Western blot. B-actin was used as the internal control to ensure that equal amounts of proteins were loaded in each lane in SDS-PAGE.

[2] = tested on: PCS-200-013 normal melanocyte; experiment: Inhibitor dose response curves (cell counts after 3 days); conditions: for effect on cell proliferation of normal melanocytes: dose curve
Protocol: (§1) Dose curves (inhibitor concentrations vs cell population after 3 days) for ICA-1, ACPD, DND and ζ-Stat were obtained for all 3 cell lines as follows. PCS-200-013, SK-MEL-2 and MeWo cells (4×10^4) were cultured in 25 cm^2 flasks and treated with either equal volume of sterile water (vehicle control). Cells were treated every 24 h during 3 day incubation period and cells were then lifted using Trypsin-EDTA solution (1.5 mL/flask) and neutralized with the equal volume of media. Subsequently, live cells were counted using the Scepter, an automated cell counter from Millipore (Billerica, Mass.). The cell growth inhibition for all inhibitors for the two malignant cell lines (SK-MEL-2 and MeWo) were quantified by counting the viable cells at 24 hour intervals. Cell counts obtained from Scepter was compared with the counts obtained from the Cellometer Vision from Nexcelom Bioscience (Lawrence, Mass.).
(§2) Dose curves for ACPD and DNDA were obtained to investigate the effect on cell proliferation of normal and malignant cell lines over a wide range of concentrations. […] ACPD decreased proliferation by 20% for 1.5 μM (p≤0.01), 48% for 2.5 μM (p≤0.01) and 51% for 3.5 μM (p≤0.001)(FIG. 5B). DNDA decreased by 17% for 500 nM (p≤0.01), 24% for 1.5 μM(p≤0.01), 52%) for 2.5 µM (p≤0.01) and 57 for 3.5 μM (p≤0.01)(FIG. 5C) in SK-MEL-2 cells. ACPD decreased proliferation by 28% for 500 nM (p≤0.01), 41% for 1.5 μM (p≤0.01), 54% for 2.5 µM (p≤0. 01) and 58% for 3.5 μM (p≤0.01) (FIG. 5D). DNDA decreased proliferation by 37% for 500 nM (p≤0.01), 41% for 1.5 μM (p≤0.01), 46% for 2.5 μM (p≤0.01) and 48% for 3.5 μM (p≤0.01) (FIG. 5E) in the MeWo cells.

MeWo cells [3] = experiment: as above
Protocol: as §1, §2

SK-MEL-2 cells [4] = experiment: as above
Protocol: as §1, §2

MeWo cells [5] = experiment: BME invasion assay (Calcein-AM fluorescence); conditions: 2.5 μM, vs control
Protocol: (§3) This invasion assay was performed to investigate the effect of ACPD and DNDA on malignant melanoma cell invasion in vitro. Even though it is similar to the Boyden chamber assay, it avoids scraping off the Matrigel and staining to assess migrated number of cells through filter. […] Migrated cells were stained with a fluorescent marker, Calcein-AM. Live cells cleave the ester (AM) of the molecule in order to produce fluorescence. Thus, the amount of fluorescence accumulated in the bottom chamber is proportional to the number of invaded cells. The relative fluorescent units (excitation at 485 and emission at 528 nm) after 2 h exposure were reported for inhibitor treatments for both SK-MEL-2 and MeWo cell lines compared to controls (FIG. 8D).

SK-MEL-2 cells [6] = experiment: BME invasion assay (Calcein-AM fluorescence); conditions: 2.5 μM, vs control
Protocol: as §3

[7] = upon increasing concentration, vs control

Row | Structure (SMILES) | decrease of Bcl-2 levels (SK-MEL-2 cells [1]) | decrease of CD44 (SK-MEL-2 cells [1]) | decrease of Vimentin levels (SK-MEL-2 cells [1]) | decrease of β-catenin (SK-MEL-2 cells [1]) | increase of Caspase-3 levels (SK-MEL-2 cells [1]) | increase of E-cadherin levels (SK-MEL-2 cells [1]) | increase of NF-KB p65 levels (SK-MEL-2 cells [1]) | increase of cleaved PARP levels (SK-MEL-2 cells [1]) | reduction of PKC-ζ level (SK-MEL-2 cells [1]) | reduction of PKC-ι level (SK-MEL-2 cells [1]) | reduction of pPKC-ζ level (SK-MEL-2 cells [1]) | reduction of pPKC-ι level (SK-MEL-2 cells [1]) | effect on cell proliferation of normal melanocytes [2] | decrease of proliferation (MeWo cells [3]; 500 nM) | decrease of proliferation (MeWo cells [3]; 1.5 μM) | decrease of proliferation (MeWo cells [3]; 2.5 μM) | decrease of proliferation (MeWo cells [3]; 3.5 μM) | decrease of proliferation (SK-MEL-2 cells [4]; 1.5 μM) | decrease of proliferation (SK-MEL-2 cells [4]; 2.5 μM) | decrease of proliferation (SK-MEL-2 cells [4]; 3.5 μM) | further results
1 | CC(=O)C1=C(O)CCC1=O [ACPD, 2-acetyl-1,3-cyclopentanedione] | 13% | 19% | 51% | 39% | 26% | 18% | 31% | 14% | 42% | 43% | 29% | 31% | did not show a significant effect | 28% | 41% | 54% | 58% | 20% | 48% | 51% | decrease of PARP levels (SK-MEL-2 cells [1]): 33%; PKC-ζ level (SK-MEL-2 cells [1]; [7]): decreased; PKC-ι level (SK-MEL-2 cells [1]; [7]): good decrease; reduction of invasion (MeWo cells [5]): 21%; reduction of invasion (SK-MEL-2 cells [6]): 24%
2 | Nc1c(S(=O)(=O)O)cc2cc(S(=O)(=O)O)ccc2c1N [DNDA, 3,4-diamino-2,7-naphthalenedisulfonic acid] | 7% | 27% | 49% | 13% | 32% | 28% | 49% | 16% | 33% | 52% | 17% | 33% | did not show a significant effect | 37% | 41% | 46% | 48% | 24% | 52% | 57% | increase of PARP levels (SK-MEL-2 cells [1]): 12%; inhibition of cell proliferation of normal melanocytes ([2]; 3.5 μM): 13.5%; decrease of proliferation (SK-MEL-2 cells [4]; 500 nM): 17%; reduction of invasion (MeWo cells [5]): 32%; reduction of invasion (SK-MEL-2 cells [6]): 32%

— patent publication US11065266B2, “Method of treating melanoma using an inhibitor of an atypical protein kinase C” (UNIVERSITY OF SOUTH FLORIDA, priority 2016, dated 2021)
